Experimental data: ChEMBL document CHEMBL3351724, “Human α1-adrenoceptor subtype selectivity of substituted homobivalent 4-aminoquinolines” (Bioorg Med Chem, 2014)

Assays:
[1] = biological target: T1, Alpha-1A adrenergic receptor (Homo sapiens, UniProt P35348); assay: Displacement of [3H]-prazosin from human alpha1A adrenergic receptor transfected in COS1 cells; type: cell-based, COS-1
T1 sequence (P35348 whole entry): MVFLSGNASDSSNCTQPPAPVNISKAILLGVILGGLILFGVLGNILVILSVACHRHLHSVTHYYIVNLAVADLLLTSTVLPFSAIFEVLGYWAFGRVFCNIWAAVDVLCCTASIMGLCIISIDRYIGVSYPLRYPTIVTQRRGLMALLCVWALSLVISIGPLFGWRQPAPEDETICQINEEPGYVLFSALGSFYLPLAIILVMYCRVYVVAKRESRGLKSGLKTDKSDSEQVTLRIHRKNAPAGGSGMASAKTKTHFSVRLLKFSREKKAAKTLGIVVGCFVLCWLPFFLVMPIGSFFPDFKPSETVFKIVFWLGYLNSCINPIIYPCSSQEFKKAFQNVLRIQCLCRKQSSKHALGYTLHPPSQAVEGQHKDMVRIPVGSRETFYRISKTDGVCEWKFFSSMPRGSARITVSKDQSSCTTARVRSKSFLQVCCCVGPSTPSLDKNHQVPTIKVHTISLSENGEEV

[2] = biological target: T2, Alpha-1D adrenergic receptor (Homo sapiens, UniProt P25100); assay: Binding affinity to human alpha1D adrenergic receptor transfected in COS1 cells assessed as compound required to occupy 50% of receptor; type: cell-based, COS-1
T2 sequence (P25100 whole entry): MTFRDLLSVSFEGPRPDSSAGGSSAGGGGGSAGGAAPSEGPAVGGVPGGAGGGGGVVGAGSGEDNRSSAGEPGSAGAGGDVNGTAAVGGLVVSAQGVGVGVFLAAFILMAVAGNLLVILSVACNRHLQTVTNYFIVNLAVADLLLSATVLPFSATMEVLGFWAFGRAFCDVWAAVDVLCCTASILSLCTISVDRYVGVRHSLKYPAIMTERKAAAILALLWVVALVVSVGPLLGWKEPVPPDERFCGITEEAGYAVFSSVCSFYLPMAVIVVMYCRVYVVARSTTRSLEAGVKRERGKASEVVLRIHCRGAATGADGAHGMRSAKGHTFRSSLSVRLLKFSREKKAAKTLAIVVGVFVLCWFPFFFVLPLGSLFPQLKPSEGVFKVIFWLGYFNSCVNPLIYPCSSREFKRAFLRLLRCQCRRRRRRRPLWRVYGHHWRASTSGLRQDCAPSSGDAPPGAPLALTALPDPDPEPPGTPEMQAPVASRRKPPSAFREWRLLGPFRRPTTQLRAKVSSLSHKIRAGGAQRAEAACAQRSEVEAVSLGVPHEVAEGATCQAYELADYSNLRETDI

[3] = biological target: T2, Alpha-1D adrenergic receptor; assay: Displacement of [3H]-prazosin from human alpha1D adrenergic receptor transfected in COS1 cells; type: cell-based, COS-1
[4] = biological target: T3, Alpha-1B adrenergic receptor (Homo sapiens, UniProt P35368); assay: Displacement of [3H]-prazosin from human alpha1B adrenergic receptor transfected in COS1 cells; type: cell-based, COS-1
T3 sequence (P35368 whole entry): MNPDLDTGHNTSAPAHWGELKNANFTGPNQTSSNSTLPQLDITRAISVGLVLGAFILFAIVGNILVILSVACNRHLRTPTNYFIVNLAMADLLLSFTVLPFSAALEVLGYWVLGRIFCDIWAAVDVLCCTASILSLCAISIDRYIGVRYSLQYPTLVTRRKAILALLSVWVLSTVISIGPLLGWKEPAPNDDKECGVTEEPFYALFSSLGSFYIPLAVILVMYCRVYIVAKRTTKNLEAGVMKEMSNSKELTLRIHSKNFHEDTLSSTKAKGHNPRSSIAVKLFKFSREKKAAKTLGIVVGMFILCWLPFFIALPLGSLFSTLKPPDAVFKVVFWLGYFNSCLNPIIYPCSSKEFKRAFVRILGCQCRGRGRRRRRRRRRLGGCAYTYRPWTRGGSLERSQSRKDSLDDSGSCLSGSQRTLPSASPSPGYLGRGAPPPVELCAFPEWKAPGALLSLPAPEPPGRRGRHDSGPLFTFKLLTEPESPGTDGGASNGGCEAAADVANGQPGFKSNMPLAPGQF

[5] = biological target: T4, 5-hydroxytryptamine receptor 1A (Homo sapiens, UniProt P08908); assay: Displacement of [3H]8-OH-DPAT from human 5HT1A receptor transfected in COS1 cells; type: cell-based, COS-1
T4 sequence (P08908 whole entry): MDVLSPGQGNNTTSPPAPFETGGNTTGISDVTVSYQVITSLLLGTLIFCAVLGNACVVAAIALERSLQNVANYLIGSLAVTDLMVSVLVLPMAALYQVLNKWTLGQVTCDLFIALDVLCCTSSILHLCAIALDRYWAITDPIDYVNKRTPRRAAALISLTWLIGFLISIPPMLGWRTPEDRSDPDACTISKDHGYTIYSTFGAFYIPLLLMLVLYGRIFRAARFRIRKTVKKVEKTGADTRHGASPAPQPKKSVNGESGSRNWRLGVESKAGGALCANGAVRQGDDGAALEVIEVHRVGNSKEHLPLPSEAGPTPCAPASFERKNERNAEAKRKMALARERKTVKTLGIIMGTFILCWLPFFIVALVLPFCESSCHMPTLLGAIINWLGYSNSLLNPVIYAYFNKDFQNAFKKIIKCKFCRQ

[6] = biological target: T4, 5-hydroxytryptamine receptor 1A; assay: Binding affinity to human 5HT1A receptor transfected in COS1 cells assessed as compound required to occupy 50% of receptor; type: cell-based, COS-1
[7] = biological target: T1, Alpha-1A adrenergic receptor; assay: Binding affinity to human alpha1A adrenergic receptor transfected in COS1 cells assessed as compound required to occupy 50% of receptor; type: cell-based, COS-1
[8] = biological target: T3, Alpha-1B adrenergic receptor; assay: Binding affinity to human alpha1B adrenergic receptor transfected in COS1 cells assessed as compound required to occupy 50% of receptor; type: cell-based, COS-1
Homo sapiens [9] = species: Homo sapiens; assay: Selectivity ratio of Ki for human 5HT1A receptor to Ki for human alpha1A adrenergic receptor
Homo sapiens [10] = species: Homo sapiens; assay: Selectivity ratio of Ki for human alpha1B adrenergic receptor to Ki for human alpha1A adrenergic receptor
Homo sapiens [11] = species: Homo sapiens; assay: Selectivity ratio of Ki for human alpha1D adrenergic receptor to Ki for human alpha1A adrenergic receptor

Structure (SMILES) | Ki [1] [nM] | Ki [2] [nM] | Ki [3] [nM] | Ki [4] [nM] | Ki [5] [nM] | Ki [6] [nM] | Ki [7] [nM] | Ki [8] [nM] | Ratio Ki (Homo sapiens [9]) | Ratio Ki (Homo sapiens [10]) | Ratio Ki (Homo sapiens [11])
Cc1cccc2c(NCCNc3ccnc4c(C)cccc34)ccnc12 | 7.41 | 479 | 479 | 39.8 | 1170 | 1170 | 7 | 40 | 168 | 6 | 68
COc1ccc2c(NCCNc3ccnc4cc(OC)ccc34)ccnc2c1 | 69.2 | 214 | 214 | 50.1 | 891 | 891 | 69 | 50 |  |  | 
COc1cccc2c(NCCNc3ccnc4c(OC)cccc34)ccnc12 | 195 | 2000 | 2000 | 324 | 3090 | 3090 | 195 | 324 |  |  | 
c1ccc2c(NCCCCCCCNc3ccnc4ccccc34)ccnc2c1 | 126 | 309 | 309 | 148 | 832 | 832 | 126 | 148 |  |  | 
Cc1ccc2nccc(NCCNc3ccnc4ccc(C)cc34)c2c1 | 135 | 490 | 490 | 19.1 | 617 | 617 | 135 | 19 |  |  | 

The remaining molecules from weak to strong by Ki [1], led by results:

Ki [1] [nM] | Ki [2] [nM] | Ki [3] [nM] | Ki [4] [nM] | Ki [5] [nM] | Ki [6] [nM] | Ki [7] [nM] | Ki [8] [nM] | Ratio Ki (Homo sapiens [9]) | Ratio Ki (Homo sapiens [10]) | Ratio Ki (Homo sapiens [11]) | Structure (SMILES)
617 | 479 | 479 | 151 | 1100 | 1100 | 617 | 151 |  |  |  | Cc1ccc2nccc(NCCCCCCCNc3ccnc4ccc(C)cc34)c2c1
316 | 372 | 372 | 148 | 1380 | 1380 | 316 | 148 |  |  |  | COc1ccc2nccc(NCCCCCCCNc3ccnc4ccc(OC)cc34)c2c1
257 | 229 | 229 | 34.7 | 2820 | 2820 | 257 | 35 |  |  |  | COc1ccc2c(NCCCCCCCNc3ccnc4cc(OC)ccc34)ccnc2c1
120 | 204 | 204 | 47.9 | 3470 | 3470 | 120 | 48 |  |  |  | Cc1ccc2c(NCCNc3ccnc4cc(C)ccc34)ccnc2c1
112 | 490 | 490 | 51.3 | 1260 | 1260 | 112 | 51 |  |  |  | Cc1ccc2c(NCCCCCCCNc3ccnc4cc(C)ccc34)ccnc2c1
74.1 | 759 | 759 | 155 | 603 | 603 | 74 | 155 |  |  |  | COc1cccc2c(NCCCCCCCNc3ccnc4c(OC)cccc34)ccnc12
26.3 | 331 | 331 | 28.2 | 2290 | 2290 | 26 | 28 |  |  |  | c1ccc2c(NCCNc3ccnc4ccccc34)ccnc2c1
